From US20230398130A1, “METHODS AND COMPOSITIONS FOR DIFFERENTIATING STEM CELLS” (Massachusetts Institute of Technology, priority 2020, published 2023)

Experiments:
ISC-enriched organoids [1] = experiment: Primary screen, 384-well 2.5-D organoid differentiation (ENR+CD, 6 days): basal lysozyme secretion (LYZ.NS); format: cell-based, murine; details: primary screen; for Dose.FC.LYZ.NS (log 2 fold change): vs plate median; for Dose.FC.LYZ.NS: FC vs plate median; for SSMD.LYZ.NS: strictly standardized mean difference
From the text: (§1) High-throughput screening.

ISC-enriched organoids [2] = experiment: Primary screen, 384-well 2.5-D organoid differentiation (ENR+CD, 6 days): carbachol-induced lysozyme secretion (LYZ.S); format: cell-based, murine; details: primary screen; for Dose.FC.LYZ.S (log 2 fold change): vs plate median; for Dose.FC.LYZ.S: FC vs plate median; for Z.LYZ.S: standard z score; for SSMD.LYZ.S: strictly standardized mean difference
From the text: as §1

ISC-enriched organoids [3] = experiment: Primary screen, 384-well 2.5-D organoid differentiation (ENR+CD, 6 days, Target Selective Inhibitor Library, vs whole-plate median): ATP (CellTiter-Glo 3D, CTG); details: primary screen; for Dose.FC.CTG (log 2 fold change): vs plate median; for Dose.FC.CTG: FC vs plate median; for SSMD.CTG: strictly standardized mean difference
[4] = dose 0.08 uM, standard z score of FC
[5] = dose 0.40 uM, standard z score of FC
[6] = dose 2.00 uM, standard z score of FC
[7] = dose 10.00 uM, standard z score of FC
[8] = Dose 10.00 uM, standard z score
[9] = 1st of the 4 dose lines of the treatment (dose not given)
[10] = 2nd of the 4 dose lines of the treatment (dose not given)
[11] = 3rd of the 4 dose lines of the treatment (dose not given)
[12] = 4th of the 4 dose lines of the treatment (dose not given)

In the case of `Cc1cc(Nc2ccc(NC(=O)c3ccc(Nc4ccnc5ccccc45)cc3)cc2)nc(N)n1` [SGI-1027], the “Z.LYZ.NS (standard z score)” value (ISC-enriched organoids [1]; Dose 0.08 uM) is reported as 0.528, the “Dose.FC.LYZ.NS (log 2 fold change)” value (ISC-enriched organoids [1]; Dose 0.08 uM) is reported as 0.061 and the “Z.LYZ.NS (standard z score)” value (ISC-enriched organoids [1]; Dose 0.40 uM) is reported as 0.735. For the same compound, the “Dose.FC.LYZ.NS (log 2 fold change)” value (ISC-enriched organoids [1]; Dose 0.40 uM) was 0.084, the “Z.LYZ.NS (standard z score)” value (ISC-enriched organoids [1]; Dose 2.00 uM) was 1.123 and the “Dose.FC.LYZ.NS (log 2 fold change)” value (ISC-enriched organoids [1]; Dose 2.00 uM) was 0.129. The “Z.LYZ.NS (standard z score)” value (ISC-enriched organoids [1]; Dose 10.00 uM) was −0.046, the “Dose.FC.LYZ.NS (log 2 fold change)” value (ISC-enriched organoids [1]; Dose 10.00 uM) was −0.005 and the “Dose.FC.LYZ.S (log 2 fold change)” value (ISC-enriched organoids [2]; Dose 0.08 uM) was 0.060. For the same compound, the “Dose.FC.LYZ.S (log 2 fold change)” value (ISC-enriched organoids [2]; Dose 0.40 uM) was 0.145, the “Dose.FC.LYZ.S (log 2 fold change)” value (ISC-enriched organoids [2]; Dose 2.00 uM) was 0.094 and the “Dose.FC.LYZ.S (log 2 fold change)” value (ISC-enriched organoids [2]; Dose 10.00 uM) was 0.018. The “Z.CTG (standard z score)” value (ISC-enriched organoids [3]; Dose 0.08 uM) was 0.583, the “Dose.FC.CTG (log 2 fold change)” value (ISC-enriched organoids [3]; Dose 0.08 uM) was 0.244 and the “Z.CTG (standard z score)” value (ISC-enriched organoids [3]; Dose 0.40 uM) was 0.712. The “Dose.FC.CTG (log 2 fold change)” value (ISC-enriched organoids [3]; Dose 0.40 uM) was 0.298, the “Z.CTG (standard z score)” value (ISC-enriched organoids [3]; Dose 2.00 uM) was 0.412 and the “Dose.FC.CTG (log 2 fold change)” value (ISC-enriched organoids [3]; Dose 2.00 uM) was 0.172. The “Z.CTG (standard z score)” value (ISC-enriched organoids [3]; Dose 10.00 uM) was 0.125 and the “Dose.FC.CTG (log 2 fold change)” value (ISC-enriched organoids [3]; Dose 10.00 uM) was 0.052.

`CC(C)CCN1c2nc(Nc3cc(F)c(O)c(F)c3)ncc2N(C)C(=O)C1C` (stereo not drawn) [BI-D1870] showed a Dose.FC.LYZ.NS (ISC-enriched organoids [1]; dose 0.08 uM, ENR+CD 6 days) of 0.141 log 2 fold change, a Z.LYZ.NS (ISC-enriched organoids [1]; [4]) of 1.225 and a Dose.FC.LYZ.NS (ISC-enriched organoids [1]; dose 0.40 uM, ENR+CD 6 days) of 0.126 log 2 fold change. For the same compound, the Z.LYZ.NS (ISC-enriched organoids [1]; [5]) was 1.099, the Dose.FC.LYZ.NS (ISC-enriched organoids [1]; dose 2.00 uM, ENR+CD 6 days) was −0.066 log 2 fold change and the Z.LYZ.NS (ISC-enriched organoids [1]; [6]) was −0.574. It also gave a Dose.FC.LYZ.NS (ISC-enriched organoids [1]; dose 10.00 uM, ENR+CD 6 days) of −0.285 log 2 fold change, a Z.LYZ.NS (ISC-enriched organoids [1]; [7]) of −2.483 and a Dose.FC.LYZ.S (ISC-enriched organoids [2]; dose 0.08 uM, ENR+CD 6 days) of 0.162 log 2 fold change. It also gave a Dose.FC.LYZ.S (ISC-enriched organoids [2]; dose 0.40 uM, ENR+CD 6 days) of 0.158 log 2 fold change, a Dose.FC.LYZ.S (ISC-enriched organoids [2]; dose 2.00 uM, ENR+CD 6 days) of 0.008 log 2 fold change and a Dose.FC.LYZ.S (ISC-enriched organoids [2]; dose 10.00 uM, ENR+CD 6 days) of −0.378 log 2 fold change. It also gave a Dose.FC.CTG (ISC-enriched organoids [3]; dose 0.08 uM, ENR+CD 6 days) of 0.186 log 2 fold change, a Z.CTG (ISC-enriched organoids [3]; [4]) of 0.444 and a Dose.FC.CTG (ISC-enriched organoids [3]; dose 0.40 uM, ENR+CD 6 days) of 0.029 log 2 fold change. For the same compound, the Z.CTG (ISC-enriched organoids [3]; [5]) was 0.069, the Dose.FC.CTG (ISC-enriched organoids [3]; dose 2.00 uM, ENR+CD 6 days) was −0.012 log 2 fold change and the Z.CTG (ISC-enriched organoids [3]; [6]) was −0.028. For the same compound, the Dose.FC.CTG (ISC-enriched organoids [3]; dose 10.00 uM, ENR+CD 6 days) was −0.700 log 2 fold change and the Z.CTG (ISC-enriched organoids [3]; [7]) was −1.673.

For `O=S(=O)(c1ccccc1)c1cnc2c(N3CCNCC3)cccc2c1` [SB742457], the “Z.LYZ.NS (standard z score)” value (ISC-enriched organoids [1]; Dose 0.08 uM) was 0.108, the “Dose.FC.LYZ.NS (log 2 fold change)” value (ISC-enriched organoids [1]; Dose 0.08 uM) was 0.012 and the “Z.LYZ.NS (standard z score)” value (ISC-enriched organoids [1]; Dose 0.40 uM) was −0.537. For the same compound, the “Dose.FC.LYZ.NS (log 2 fold change)” value (ISC-enriched organoids [1]; Dose 0.40 uM) was −0.062, the “Z.LYZ.NS (standard z score)” value (ISC-enriched organoids [1]; Dose 2.00 uM) was 0.598 and the “Dose.FC.LYZ.NS (log 2 fold change)” value (ISC-enriched organoids [1]; Dose 2.00 uM) was 0.069. For the same compound, the “Z.LYZ.NS (standard z score)” value (ISC-enriched organoids [1]; Dose 10.00 uM) was 0.115, the “Dose.FC.LYZ.NS (log 2 fold change)” value (ISC-enriched organoids [1]; Dose 10.00 uM) was 0.013 and the “Dose.FC.LYZ.S (log 2 fold change)” value (ISC-enriched organoids [2]; Dose 0.08 uM) was −0.055. The “Dose.FC.LYZ.S (log 2 fold change)” value (ISC-enriched organoids [2]; Dose 0.40 uM) was −0.029, the “Dose.FC.LYZ.S (log 2 fold change)” value (ISC-enriched organoids [2]; Dose 2.00 uM) was −0.003 and the “Dose.FC.LYZ.S (log 2 fold change)” value (ISC-enriched organoids [2]; Dose 10.00 uM) was −0.006. For the same compound, the “Z.CTG (standard z score)” value (ISC-enriched organoids [3]; Dose 0.08 uM) was −0.693, the “Dose.FC.CTG (log 2 fold change)” value (ISC-enriched organoids [3]; Dose 0.08 uM) was −0.290 and the “Z.CTG (standard z score)” value (ISC-enriched organoids [3]; Dose 0.40 uM) was −0.300. For the same compound, the “Dose.FC.CTG (log 2 fold change)” value (ISC-enriched organoids [3]; Dose 0.40 uM) was −0.126, the “Z.CTG (standard z score)” value (ISC-enriched organoids [3]; Dose 2.00 uM) was −0.423 and the “Dose.FC.CTG (log 2 fold change)” value (ISC-enriched organoids [3]; Dose 2.00 uM) was −0.177. For the same compound, the “Z.CTG (standard z score)” value (ISC-enriched organoids [3]; Dose 10.00 uM) was −0.702 and the “Dose.FC.CTG (log 2 fold change)” value (ISC-enriched organoids [3]; Dose 10.00 uM) was −0.294.

For `Cc1c(C(=O)Nc2ccc(N3C[C@@H](C)O[C@@H](C)C3)nc2)cccc1-c1ccc(OC(F)(F)F)cc1` [LDE225 (NVP-LDE225, Erismodegib)], the Dose.FC.LYZ.NS (ISC-enriched organoids [1]; Dose 0.08 uM) was 0.085 log 2 fold change, the Z.LYZ.NS (ISC-enriched organoids [1]; Dose 0.08 uM, standard z score) was 0.739 and the Dose.FC.LYZ.NS (ISC-enriched organoids [1]; Dose 0.40 uM) was 0.101 log 2 fold change. The Z.LYZ.NS (ISC-enriched organoids [1]; Dose 0.40 uM, standard z score) was 0.881, the Dose.FC.LYZ.NS (ISC-enriched organoids [1]; Dose 2.00 uM) was 0.011 log 2 fold change and the Z.LYZ.NS (ISC-enriched organoids [1]; Dose 2.00 uM, standard z score) was 0.094. The Dose.FC.LYZ.NS (ISC-enriched organoids [1]; Dose 10.00 uM) was 0.049 log 2 fold change, the Z.LYZ.NS (ISC-enriched organoids [1]; [8]) was 0.426 and the SSMD.LYZ.NS (ISC-enriched organoids [1]; [9]) was 0.869. For the same compound, the SSMD.LYZ.NS (ISC-enriched organoids [1]; [10]) was 0.731, the SSMD.LYZ.NS (ISC-enriched organoids [1]; [11]) was 0.074 and the SSMD.LYZ.NS (ISC-enriched organoids [1]; [12]) was 0.268. For the same compound, the Dose.FC.LYZ.S (ISC-enriched organoids [2]; Dose 0.08 uM) was 0.095 log 2 fold change, the Dose.FC.LYZ.S (ISC-enriched organoids [2]; Dose 0.40 uM) was 0.074 log 2 fold change and the Dose.FC.LYZ.S (ISC-enriched organoids [2]; Dose 2.00 uM) was 0.002 log 2 fold change. It also gave a Dose.FC.LYZ.S (ISC-enriched organoids [2]; Dose 10.00 uM) of 0.006 log 2 fold change, a Z.LYZ.S (ISC-enriched organoids [2]; [9]) of 0.613 and a Z.LYZ.S (ISC-enriched organoids [2]; [10]) of 0.481. The Z.LYZ.S (ISC-enriched organoids [2]; [11]) was 0.013, the Z.LYZ.S (ISC-enriched organoids [2]; [12]) was 0.038 and the SSMD.LYZ.S (ISC-enriched organoids [2]; [9]) was 0.704. The SSMD.LYZ.S (ISC-enriched organoids [2]; [10]) was 0.415, the SSMD.LYZ.S (ISC-enriched organoids [2]; [11]) was 0.013 and the SSMD.LYZ.S (ISC-enriched organoids [2]; [12]) was 0.025. The Dose.FC.CTG (ISC-enriched organoids [3]; Dose 0.08 uM) was 0.107 log 2 fold change, the Z.CTG (ISC-enriched organoids [3]; Dose 0.08 uM, standard z score) was 0.255 and the Dose.FC.CTG (ISC-enriched organoids [3]; Dose 0.40 uM) was 0.067 log 2 fold change. It also gave a Z.CTG (ISC-enriched organoids [3]; Dose 0.40 uM, standard z score) of 0.159, a Dose.FC.CTG (ISC-enriched organoids [3]; Dose 2.00 uM) of 0.229 log 2 fold change and a Z.CTG (ISC-enriched organoids [3]; Dose 2.00 uM, standard z score) of 0.546. For the same compound, the Dose.FC.CTG (ISC-enriched organoids [3]; Dose 10.00 uM) was −0.001 log 2 fold change, the Z.CTG (ISC-enriched organoids [3]; [8]) was −0.002 and the SSMD.CTG (ISC-enriched organoids [3]; [9]) was 0.313. It also gave an SSMD.CTG (ISC-enriched organoids [3]; [10]) of 0.163, an SSMD.CTG (ISC-enriched organoids [3]; [11]) of 0.681 and an SSMD.CTG (ISC-enriched organoids [3]; [12]) of −0.001.
